These are literature values, as cited in patent US6379705B1, “Stable multi-unitary pharmaceutical preparations containing substituted benzimidazoles” (Laboratorio Mendifar-Produtos Farmaceuticos, S.A., priority 1999, dated 2002).

Consider `COc1ccc2[nH]c([S+]([O-])Cc3ncc(C)c(OC)c3C)nc2c1` (centres unmarked) [omeprazole], for which, under “omeprazole solutions”, the “pH of maximum stability of solutions” value is 11. Also, the degradation in solution result (pHs lower than 7.8) is “very quickly”.
